Data reported in PMC12040169 (PLOS Biology, 2025).

experiment: in vitro; details: human, hela cells, % viability

SMILES | viability at 28.5 h, 10 µM [%]
CC(Oc1ccccc1)c1nnc(SCC(=O)Nc2ccc(Br)c(Cl)c2)n1C (centres unmarked) [CBK266299] | 113
CC(=O)N1CC2(CCN(C(=O)c3ccco3)CC2)Nc2ccccc21 [CBK284447] | 95.5
O=C(c1ccc(O)nc1)N1CCN(Cc2cc(=O)n3ccsc3n2)CC1 [CBK306098] | 86.3
Fc1ccc(CN2CCC(c3n[nH]c4ncccc34)CC2)cc1 [CBK284902] | 96.2
O=C(NCc1ccc2c(c1)OCO2)c1ccc(Oc2ccccc2)cc1 [CBK293982] | 91.4
COC(=O)c1c(NC(=O)CSc2nnc3ccccn23)sc(C)c1C [CBK265943] | 95.7
O=C(NC1CCCCC1)N[C@H]1CO[C@H]2[C@@H]1OC[C@@H]2n1cc(-c2ccccc2)nn1 [CBK289505] | 84.6
O=C(c1ccc2ccccc2n1)N1CCc2ccccc21 [CBK200404] | 94
COC(=O)Nc1ccc(S(=O)(=O)Oc2ccc(C)cc2-n2nc3ccccc3n2)cc1 [CBK262183] | 89.3
Cc1cc2c(o1)c1cnn(CC(=O)N(C)C)c(=O)c1n2C(C)C [CBK284233] | 88.9
COc1ccccc1CN(Cc1cccnc1)C(=O)CCC(F)(F)F [CBK307713] | 92.3
O=C(CCCn1cc([N+](=O)[O-])cn1)Nc1cc(C(F)(F)F)ccc1Cl [CBK293987] | 108
CCOc1cc(/C=C2\SC(=N)NC2=O)ccc1OC(=O)c1cccs1 [CBK265510] | 107
CN1CCN(C(=O)c2ccc(-c3ccoc3)nc2)CC1 [CBK156280] | 100
O=C(NC(=S)Nc1ccc2oc(-c3ccncc3)nc2c1)c1ccccc1[N+](=O)[O-] [CBK264106] | 87.3
O=C(O)CCC(=O)Nc1ccc(NC(=O)c2ccccc2)c(Cl)c1 [CBK263478] | 86.8
CC(=O)Nc1nnn(CCOc2nonc2C)n1 [CBK027320] | 90.2
CCN(Cc1nc(-c2ccccc2)no1)C(=O)c1ccoc1C [CBK270229] | 89.3
O=C(NCCC1SC(NC2CC3C=CC2C3)=NC1=O)c1ccccc1Cl (centres unmarked) [CBK200062] | 113
COc1ccc(OC)c(NC(=O)c2cc(=O)[nH]c3ccccc23)c1 [CBK297521] | 92.7
Nc1ccc(S(=O)(=O)Nc2nccc(/C=C/c3ccc(Cl)cc3)n2)cc1 [CBK263254] | 105
CCNc1cc2ccccc2c(-c2cccc(C(F)(F)F)c2)n1 [CBK085772] | 101

SMILES | viability at 28.5 h, 10 µM [%]
O=C(C[C@@H]1CCNC[C@@H]1Cc1cc(-c2ccccc2)on1)N1CCN(c2ccccn2)CC1 [CBK289150] | 81
COc1cc(NS(=O)(=O)c2ccc(NC(=O)c3cccnc3)cc2)ncn1 [CBK268156] | 93
O=C(c1ccccc1)c1ccc2[nH]nnc2c1 [CBK091608] | 94.2
c1ccc2cc(CCN3CCN(c4nccnc4OCCN4CCOCC4)CC3)ccc2c1 [CBK082911T] | 87.6
COc1ccccc1C(C)N(C)CCC(=O)Nc1cc(C)on1 (centres unmarked) [CBK305098] | 94.1
CC(C)NC(=O)[C@@H](C)C1CC[C@@]2(C)CC[C@H](NC(=O)c3ccncc3)[C@@H](C)[C@@H]2[C@H]1O (some centres unmarked) [CBK289449] | 89.1
CC(=O)c1ccccc1-c1ccc(C(=O)N2CCN(C)CC2)c(NCC2CC2)n1 [CBK076613] | 92.8
O=C(NCCC(c1ccccc1)c1ccco1)C1CCCN1 (centres unmarked) [CBK282499] | 85
CC(C)c1ccc(NC(=O)O[C@@H]2CO[C@H]3[C@@H]2OC[C@@H]3NC(=O)c2cncnc2)cc1 [CBK289480] | 105
CCNc1nc2c(ncn2C2CC(O)C(CO)O2)c(=O)[nH]1 (centres unmarked) [CBK201189] | 99.6
Cc1ccc(-c2cccc(N3CCN(CCN4CCCC4)CC3)n2)cc1C [CBK037799] | 113
Cc1ccc(NC(=O)c2cnc3ccc(C)cn3c2=O)cc1 [CBK287285] | 90.2
COc1ccc2nc(C)cc(N3CCOCC3)c2c1 [CBK066896] | 91.2
COCCNS(=O)(=O)c1ccc(C)cc1 [CBK002332] | 82.5
CCc1nc2ccc(C(=O)N(C)Cc3ccccc3)cn2c1N(C=O)CC [CBK145936] | 102
CNC(=S)NCc1ccncc1 [CBK020033] | 106
CC1CCCCN1Cc1nc2c(c(=O)n(C)c(=O)n2C)n1Cc1ccccc1 (centres unmarked) [CBK269203] | 105
O=C(O)Cn1cc(I)c(=O)[nH]c1=O [CBK262698] | 98.6
CCOc1ccc2nc(NS(=O)(=O)c3cc(C(=O)O)c(Cl)cc3Cl)sc2c1 [CBK299789] | 109
CCCN1CC(NS(=O)(=O)c2cc(OC)c(Cl)cc2OC)CC1=O (centres unmarked) [CBK307581] | 96.7
CC(C(=O)O)N1C(=O)c2ccccc2C1c1c[nH]c2ccccc12 (centres unmarked) [CBK286576] | 106
O=S(=O)(Nc1nc(CCNCCO)cs1)c1ccc(Oc2ccccc2)cc1 [CBK034632] | 111

SMILES | viability at 28.5 h, 10 µM [%]
Brc1ccc(/C=N\c2ccc3c(c2)ncn3CCn2cnc3cc(/N=C/c4ccc(Br)cc4)ccc32)cc1 [CBK262285] | 83.9
COc1cccc(C2=CC(c3ccccc3Cl)N3N=NNC3=N2)c1 (centres unmarked) [CBK287943] | 84.4
O=C(Nc1ccncc1)c1ccc2nc[nH]c2c1 [CBK269034] | 93.2
Cc1c(C(=O)Nc2cccc(C(F)(F)F)c2)sc2nc(-c3ccccc3)cn12 [CBK294408] | 87.9
Cc1cnc2[nH]c(C(F)(F)F)c(CN3CCSCC3)c2c1 [CBK284767] | 90
O=c1ccc2cc(S(=O)(=O)Nc3ccc4[nH]ccc4c3)ccc2o1 [CBK062503] | 54.8
N#CCCCN1C(=O)C(O)(CC(=O)c2ccccn2)c2ccccc21 (centres unmarked) [CBK307373] | 121
COc1ccc(-c2cnc(N)c(N3CCN(C)CC3)n2)c(OC)c1OC [CBK063489] | 103
COCC(=O)N1CCC(c2onc3c2CC(C)CC3)CC1 (centres unmarked) [CBK284599] | 89.9
Cc1c(NC(=O)CN2CCCC(C)C2)ccc2nsnc12 (centres unmarked) [CBK269248] | 97.4
COc1cccc(CC(=O)N2CCC(Cc3cccc(-c4cccs4)c3)(C(N)=O)CC2)c1 [CBK285738] | 96.4
Cc1nn(C)c(C)c1C(C)NS(=O)(=O)Cc1cccc(F)c1 (centres unmarked) [CBK281396] | 107
Cc1noc(C)c1C(=O)N1CCn2cc(C(F)(F)F)nc2C1 [CBK282431] | 90.2
CC(C)(C)c1n[nH]c(C2CN(C(=O)CCc3ccco3)CCO2)n1 (centres unmarked) [CBK305204] | 81.5
S=C(NCCc1ccc(Cl)cc1)NCc1ccco1 [CBK266812] | 83.3
CCOc1cc(/C=C2\SC(=N)NC2=O)cc(Cl)c1O [CBK262955] | 84.4
CCn1ccnc1CN1CCOC(Cc2ccccc2Cl)C1 (centres unmarked) [CBK306625] | 94.5
COc1cc(CNC(=O)c2ccc3[nH]ccc3c2)cc(OC)c1OC [CBK149073] | 91
COCCC(=O)NC(Cc1ccsc1)c1nc(C)cs1 (centres unmarked) [CBK282830] | 85.1
O=C(CSc1nnc(-c2ccncc2)[nH]1)c1ccc(O)c(O)c1 [CBK264346] | 86.6
CCCCC(C(=O)O)N1C(=O)C2CC=C(Cl)CC2C1=O (centres unmarked) [CBK286536] | 91.4
Cc1ccc2nc(O)c(C3=NN(C(=O)CCC(=O)O)C(c4ccco4)C3)c(-c3ccccc3)c2c1 (centres unmarked) [CBK267544] | 91

SMILES | viability at 28.5 h, 10 µM [%]
CCOC(=O)Cc1csc(SC(C)C(=O)N2CCc3ccccc3C2)n1 (centres unmarked) [CBK305586] | 99.9
COc1ccc(-n2cnnn2)cc1 [CBK001946] | 99
CCn1c(C)cc2cc(NC(=O)c3cnc(C)nc3C)ccc21 [CBK283260] | 104
NC(=O)CCC(=O)N1CCC2(C/C=C/CCOc3ccccc3C(=O)NCCCNC2=O)CC1 [CBK292059] | 91.7
Clc1ccc(CN2CCC(NCCCn3cccn3)CC2)cc1 [CBK304004] | 84.2
O=C(Cn1cnnn1)NCc1cccnc1OCC(F)(F)F [CBK306467] | 96.1
CCc1cc(Br)ccc1S(=O)(=O)NCc1cccc(F)c1 [CBK045114] | 89.1
CCc1ccc(C(=O)NC(Cc2c[nH]c3ccccc23)C(=O)O)cc1 (centres unmarked) [CBK269556] | 101
CN1CCN(c2ccc(NC(=O)c3ccc(OCc4ccccc4)cc3)cc2)CC1 [CBK266124] | 99.6
CCOC(=O)N1CCN(S(=O)(=O)c2ccc3oc(=O)ccc3c2)CC1 [CBK305870] | 82.6
CC1CCc2c(sc(NC(=O)c3ccno3)c2C(N)=O)C1 (centres unmarked) [CBK287752] | 85.4
CC(=O)c1cccc(-c2ccc3c(c2)C(=O)NC2(CCN(C(=O)OC(C)(C)C)CC2)O3)c1 [CBK131969] | 95.4
CN1CCN(C(=O)c2ccsc2NS(=O)(=O)c2ccc(Oc3ccccc3)cc2)CC1 [CBK042277] | 87
COc1cc(CN2CCC(Cc3ccccc3-c3ccccc3)(C(N)=O)CC2)cc(OC)c1 [CBK285912] | 88.1
COc1cc(CNCc2ccc(F)cc2)cc(Cl)c1OCC(N)=O [CBK270256C] | 89
Cn1cc(Cl)c(C2CCCCCN2C(=O)c2ccco2)n1 (centres unmarked) [CBK285105] | 96.5
CCCc1[nH]nc(O)c1CCc1ccccc1F [CBK075080] | 88.5
Cc1nnc(NC(=O)Cc2ccc(F)cc2)s1 [CBK287360] | 103
O=C(O)/C=C/C(=O)Nc1ccccc1C(=O)O [CBK261461] | 101
O=C(Nc1ccc2[nH]c(=O)[nH]c2c1)c1ccc2[nH]ccc2c1 [CBK149083] | 97.5
COc1cc(CN2CCN(C(=O)c3ccccc3)CC2)cc(OC)c1O [CBK263462] | 94.3
CCCn1ncc(C(=O)NC(C)c2c(C)nn(CC)c2C)c1C (centres unmarked) [CBK281532] | 85.5

same assay, conditions: human, hela cells, % viability, bulk resorufin, single well

SMILES | viability at 28.5 h, 10 µM [%]
COC(=O)c1ccc(N2C(=O)NC(=O)/C(=C\c3ccccc3OCC(=O)O)C2=O)cc1 [CBK265459] | 84.7
